Laboratory results taken from patent US7989469B2, “Certain chemical entities, compositions, and methods” (Cytokinetics, Incorporated, priority 2008, dated 2011).

System: rabbit skeletal muscle myofibril preparations (approximately 90% fast fibers)
Assay: Activation of fast skeletal muscle fibers: enzymatic activity of myofibril preparations (PUMA assay system)
Type: biochemical
Set-up: unit not given here
Conditions: detergent treated myofibrils at pCa25%, 500 μM ATP; cells marked †: Mean value
Excerpt: Fast fiber activators were identified by measuring the enzymatic activity of muscle myofibril preparations using the proprietary PUMA™ (see, e.g., U.S. Pat. Nos. 6,410,254, 6,743,599, 7,202,051, and 7,378,254) assay system. Myofibril preparations consisted of rabbit skeletal muscle (approximately 90% fast fibers) that had been treated with a detergen (triton X-100) to remove cellular membranes and then homogenized. This preparation retained all of the sarcomeric components in a native conformation and the enzymatic activity was still regulated by calcium. Compounds were tested using a myofibril suspension and a level of calcium sufficient to increase enzymatic activity of the myofibrils to 25% of their maximal rate (termed pCa25%). Enzymatic activity was tracked via a kinetic assay with a UV absorption readout. Hits were identified as compounds that increased the rate of enzymatic activity by greater than 40% at 40 μM. Myofibril preparations are calcium regulated and were screened at a level of calcium sufficient to produce a 25% increase in enzymatic rate. Detergent treated myofibrils were incubated with 500 μM ATP and 40 μM compound and a kinetic read of UV absorbance performed. Data was normalized to control wells.

With CC[C@@H](CCO)n1c(O)nc2ncc(Cl)c(-c3ccc(F)cc3)c21 [1-((1S)-1-ethyl-3-hydroxypropyl)-6-chloro-7-(4-fluorophenyl)imidazo[4,5-b]pyridin-2-ol] the “AC1.4 Median” value was 0.475†.
With CC(C)(C)n1c(O)nc2ncc(Cl)c(-c3ccc(F)cc3)c21 [1-(tert-butyl)-6-chloro-7-(4-fluorophenyl)imidazo[4,5-b]pyridin-2-ol] the “AC1.4 Median” value was 0.199†.
With CC(C)C[C@@H](CO)n1c(O)nc2ncc(Cl)c(-c3ccc(F)cc3)c21 [1-[(1S)-2-hydroxy-1-(2-methylpropyl)ethyl]-6-chloro-7-(4-fluorophenyl)imidazo[4,5-b]pyridin-2-ol] the “AC1.4 Median” value was 0.072†.
CCC(CC)n1c(O)nc2ncc(Cl)c(-c3ccc(C#N)c(F)c3)c21 [4-(6-chloro-2-hydroxy-1-(pentan-3-yl)-1H-imidazo[4,5-b]pyridin-7-yl)-2-fluorobenzonitrile] was tested, and the “AC1.4 Median” value was 0.458†.
CCC(CC)n1c(O)nc2ncc(Cl)c(-c3cccs3)c21 [6-chloro-1-(ethylpropyl)-7-(2-thienyl)imidazo[4,5-b]pyridin-2-ol] was tested, and the “AC1.4 Median” value was 0.136†.
With CCC(CC)n1c(O)nc2ncc(Cl)c(-c3ccsc3)c21 [6-chloro-1-(ethylpropyl)-7-(3-thienyl)imidazo[4,5-b]pyridin-2-ol] the “AC1.4 Median” value was 0.124†.
In the case of CCC(CC)n1c(O)nc2ncc(Cl)c(-c3ccccc3)c21 [6-chloro-1-(ethylpropyl)-7-phenylimidazo[4,5-b]pyridin-2-ol], the “AC1.4 Median” value is reported as 0.110†.
In the case of CC(C)n1c(O)nc2ncc(Cl)c(-c3ccc(F)cc3)c21 [6-chloro-7-(4-fluorophenyl)-1-(methylethyl)imidazo[4,5-b]pyridin-2-ol], the “AC1.4 Median” value is reported as 0.096†.

Same assay, conditions: detergent treated myofibrils at pCa25%, 500 μM ATP; median value (no †)

In order of rising “AC1.4 Median” value:
1. CC(C)CC(CO)n1c(O)nc2ncc(Cl)c(-c3ccc(F)cc3)c21 (stereo not drawn) [6-chloro-7-(4-fluorophenyl)-1-[2-hydroxy-1-(2-methylpropyl)ethyl]imidazo[4,5-b]pyridin-2-ol]  0.210
2. CC[C@H](COC)n1c(O)nc2ncc(Cl)c(-c3ccc(F)cc3)c21 [1-[(1R)-1-(methoxymethyl)propyl]-6-chloro-7-(4-fluorophenyl)imidazo[4,5-b]pyridin-2-ol]  0.249
3. CC[C@@H](COC)n1c(O)nc2ncc(Cl)c(-c3ccc(F)cc3)c21 [1-[(1S)-1-(methoxymethyl)propyl]-6-chloro-7-(4-fluorophenyl)imidazo[4,5-b]pyridin-2-ol]  0.317
4. CC[C@@H](CO)n1c(O)nc2ncc(Cl)c(-c3ccc(F)c(F)c3)c21 [1-((1S)-1-ethyl-2-hydroxyethyl)-7-(3,4-difluorophenyl)-6-chloroimidazo[4,5-b]pyridin-2-ol]  0.707
5. CC(C)(CO)n1c(O)nc2ncc(Cl)c(-c3ccc(F)cc3)c21 [6-chloro-7-(4-fluorophenyl)-1-(2-hydroxy-tert-butyl)imidazo[4,5-b]pyridin-2-ol]  0.760
6. CC[C@@H](CC(C)(C)O)n1c(O)nc2ncc(Cl)c(-c3ccc(F)cc3)c21 [1-((1S)-1-ethyl-3-hydroxy-3-methylbutyl)-6-chloro-7-(4-fluorophenyl)imidazo[4,5-b]pyridin-2-ol]  1.0092
7. CC[C@H](C)n1c(O)nc2ncc(Cl)c(-n3cccn3)c21 [1-((1S)-1-methylpropyl)-6-chloro-7-pyrazolylimidazo[4,5-b]pyridin-2-ol]  1.0174
8. CC[C@H](COC)n1c(O)nc2ncc(Cl)c(-c3ccc(F)cn3)c21 [1-[(1R)-1-(methoxymethyl)propyl]-6-chloro-7-(5-fluoro(2-pyridyl))imidazo[4,5-b]pyridin-2-ol]  1.142
9. C[C@@H](CO)n1c(O)nc2ncc(Cl)c(-c3ccc(Cl)cc3)c21 [1-((1S)-2-hydroxy-isopropyl)-6-chloro-7-(4-chlorophenyl)imidazo[4,5-b]pyridin-2-ol]  1.260
10. CCC(C)n1c(O)nc2ncc(Cl)c(-n3cccn3)c21 (stereo not drawn) [6-chloro-1-(methylpropyl)-7-pyrazolylimidazo[4,5-b]pyridin-2-ol]  1.3927
11. Oc1nc2ncc(Cl)c(-c3ccc(F)cc3)c2n1C1CCCC1 [6-chloro-1-cyclopentyl-7-(4-fluorophenyl)imidazo[4,5-b]pyridin-2-ol]  1.677
12. CCC(CC)n1c(O)nc2ncc(Cl)c(-c3ccccc3C=O)c21 [2-[6-chloro-1-(ethylpropyl)-2-hydroxyimidazo[4,5-b]pyridin-7-yl]benzaldehyde]  1.689
13. CC[C@H](C)n1c(O)nc2ncc(Cl)cc21 [1-((1S)-1-methylpropyl)-6-chloroimidazo[4,5-b]pyridin-2-ol]  1.7291
14. CCC(CC)n1c(O)nc2ncc(Cl)c(-c3cccc(C=O)c3)c21 [3-[6-chloro-1-(ethylpropyl)-2-hydroxyimidazo[4,5-b]pyridin-7-yl]benzaldehyde]  1.943
15. C=CCn1c(O)nc2ncc(Cl)c(-c3ccc(F)cc3)c21 [6-chloro-7-(4-fluorophenyl)-1-prop-2-enylimidazo[4,5-b]pyridin-2-ol]  1.947
16. C[C@@H](CO)n1c(O)nc2ncc(Cl)c(-c3ccc(F)cc3)c21 [1-((1S)-2-hydroxy-isopropyl)-6-chloro-7-(4-fluorophenyl)imidazo[4,5-b]pyridin-2-ol]  2.016
17. C[C@@H](CCO)n1c(O)nc2ncc(Cl)c(-c3ccc(F)cc3)c21 [1-((1S)-3-hydroxy-1-methylpropyl)-6-chloro-7-(4-fluorophenyl)imidazo[4,5-b]pyridin-2-ol]  2.309
18. CC[C@@H](CO)n1c(O)nc2ncc(F)c(-c3ccc(Cl)cc3)c21 [1-((1S)-1-ethyl-2-hydroxyethyl)-7-(4-chlorophenyl)-6-fluoroimidazo[4,5-b]pyridin-2-ol]  2.643
19. CC[C@@H](CO)n1c(O)nc2ncc(Cl)c(-c3ccc(C#N)cc3)c21 [4-[1-((1S)-1-ethyl-2-hydroxyethyl)-6-chloro-2-hydroxyimidazo[4,5-b]pyridin-7-yl]benzenecarbonitrile]  3.249
20. CC[C@@H](COC)n1c(O)nc2ncc(Cl)c(-c3ccc(F)cn3)c21 [1-[(1S)-1-(methoxymethyl)propyl]-6-chloro-7-(5-fluoro(2-pyridyl))imidazo[4,5-b]pyridin-2-ol]  3.771
21. CC[C@@H](CO)n1c(O)nc2ncc(F)c(-c3ccc(F)cc3)c21 [1-((1S)-1-ethyl-2-hydroxyethyl)-6-fluoro-7-(4-fluorophenyl)imidazo[4,5-b]pyridin-2-ol]  4.204
22. CC[C@H](c1nc2nc(O)[nH]c2c(-c2ccc(F)cc2)c1Cl)C(CO)CO [2-{(1S)-1-[6-chloro-7-(4-fluorophenyl)-2-hydroxyimidazo[4,5-b]pyridinyl]propyl}propane-1,3-diol]  4.6812
23. OCCCn1c(O)nc2ncc(Cl)c(-c3ccc(F)cc3)c21 [6-chloro-7-(4-fluorophenyl)-1-(3-hydroxypropyl)imidazo[4,5-b]pyridin-2-ol]  7.015
24. CC[C@@H](CO)n1c(O)nc2ncc(Cl)c(-n3cccn3)c21 [1-((1S)-1-ethyl-2-hydroxyethyl)-6-chloro-7-pyrazolylimidazo[4,5-b]pyridin-2-ol]  7.2481
25. CCC(CC)n1c(O)nc2ncc(Cl)c(-c3ccnc(C#N)c3)c21 [4-(6-chloro-2-hydroxy-1-(pentan-3-yl)-1H-imidazo[4,5-b]pyridin-7-yl)picolinonitrile]  9.842
26. Cn1c(O)nc2ncc(Cl)c(-c3ccc(F)cc3)c21 [6-chloro-7-(4-fluorophenyl)-1-methylimidazo[4,5-b]pyridin-2-ol]  12.620
27. CC[C@@H](CN)n1c(O)nc2ncc(Cl)c(-c3ccc(F)cc3)c21 [1-((1S)-2-amino-1-ethylethyl)-6-chloro-7-(4-fluorophenyl)imidazo[4,5-b]pyridin-2-ol]  24.3174
28. COCC(COC)n1c(O)nc2ncc(Cl)c(-n3cccn3)c21 [6-chloro-1-[2-methoxy-1-(methoxymethyl)ethyl]-7-pyrazolylimidazo[4,5-b]pyridin-2-ol]  27.9068
29. CCC(CC)n1c(O)nc2ncc(Cl)c(-c3ccccc3C(=O)O)c21 [2-[6-chloro-1-(ethylpropyl)-2-hydroxyimidazo[4,5-b]pyridin-7-yl]benzoic acid]  30.881
30. OCCn1c(O)nc2ncc(Cl)c(-c3ccccc3)c21 [6-chloro-1-(2-hydroxyethyl)-7-phenylimidazo[4,5-b]pyridin-2-ol]  34.551
31. CCC(CC)n1c(O)nc2ncc(Cl)c(-c3cccc(S(C)(=O)=O)c3)c21 [1-[6-chloro-1-(ethylpropyl)-2-hydroxyimidazo[4,5-b]pyridin-7-yl]-3-(methylsulfonyl)benzene]  38.633
32. CC[C@@H](CO)n1c(O)nc2ncc(Cl)c(-c3cnccn3)c21 [1-((1S)-1-ethyl-2-hydroxyethyl)-6-chloro-7-pyrazin-2-ylimidazo[4,5-b]pyridin-2-ol]  40.701
33. CCC(COP(=O)(O)O)c1nc2nc(O)[nH]c2c(-c2ccc(F)c(F)c2)c1Cl (stereo not drawn) [2-[7-(3,4-difluorophenyl)-6-chloro-2-hydroxyimidazo[4,5-b]pyridinyl]butyl dihydrogen phosphate]  44.713
34. CCC(CC)n1c(O)nc2ncc(Cl)c(-c3ccc(S(C)(=O)=O)cc3)c21 [1-[6-chloro-1-(ethylpropyl)-2-hydroxyimidazo[4,5-b]pyridin-7-yl]-4-(methylsulfonyl)benzene]  45.324
